Laboratory results published in patent US10787640B2, “Producing mesodermal cell types and methods of using the same” (The Board of Trustees of the Leland Stanford Junior …, priority 2015, dated 2020).

Columns and labels:
Format in all cases: cell-based, human
lateral mesoderm = assay: Forelimb versus hindlimb progenitor specification from lateral mesoderm; conditions: for competence of lateral mesoderm for forelimb fate: lateral mesoderm induced in presence of retinoid antagonists
Protocol: Undifferentiated hPSCs (wild-type H7 as well as TBX5-Venus V19-2 H9 hESCs) were maintained in mTeSR1 media on Geltrex-coated plates. As described, they were differentiated into mid primitive streak for 24 hours (D0-1; 30 ng/mL Activin+40 ng/mL BMP4+6 μM CHIR99021+20 ng/mL FGF2+100 nM PIK90) and subsequently differentiated into lateral mesoderm (D1-2; 1 μM A-83-01+30 ng/mL BMP4+1 μM C59), with the inclusion of 50 nM of TTNPB or 2 μM ATRA on D1-2 for trunk lateral mesoderm that was subsequently competent for forelimb differentiation.
Day 2 trunk lateral mesoderm was differentiated into day 3 forelimb progenitors (D2-3; 1 μM A-83-01+1 μM DMH1+3 μM CHIR99021). By contrast, day 2 non-trunk lateral mesoderm was differentiated into day 3 hindlimb progenitors (D2-3; 25 ng/mL Activin+1 μM DMH1+3 μM CHIR99021).

[1] = test system: hESC-derived primitive streak; assay: Paraxial versus lateral/cardiac mesoderm specification from primitive streak; conditions: for paraxial mesoderm induction (qPCR day 2): ACF with DMH1 1 μM or LDN193189 250 nM, CDF with SB-505124 2 μM or A-83-01 1 μM, 24 hours
Protocol: Subsequently, day 1 anterior primitive streak was briefly washed (DMEM/F12) and differentiated towards day 2 paraxial mesoderm for 24 hours (1 μM A-83-01+3 μM CHIR99021+250 nM LDN-193189+20 ng/mL FGF2). Separately, day 1 mid primitive streak was differentiated towards day 2 lateral mesoderm for 24 hours (1 μM A-83-01+30 ng/mL BMP4+1 μM C59; with 2 μM SB-505124 sometimes used instead of A-83-01).
B) To assess whether FGF/ERK signaling was permissive for both paraxial and lateral/cardiac mesoderm specification, hESCs were differentiated into primitive streak for 24 hours, and then transferred into (i) A-83-01+DM3189 (“AD”; permissive for paraxial mesoderm) or (iii) A-83-01+BMP4+C59 (“AB+C59”; permissive for lateral/cardiac mesoderm) for 24 hours in the presence or absence of a FGF agonist (FGF2, 10-20 ng/mL), an FGFR inhibitor (PD173074, 100 nM) or a MAPK/ERK inhibitor (PD0325901, 500 nM) for 24 hours and qPCR for all experiments was conducted on day 2 (that is, after 48 total hours of hESC differentiation). To assess whether TGFβ signaling altered paraxial, intermediate and lateral/cardiac mesoderm specification, hESCs were differentiated into primitive streak for 24 hours, and then transferred into (ii) DM3189+FGF2 (“DF”; permissive for paraxial mesoderm) or (iv) BMP4+C59 (“B+C59”; permissive for lateral/cardiac mesoderm) for 24 hours in the presence of a TGFβ agonist (Activin, 10-25 ng/mL) or a TGFβR inhibitor (A-83-01, 1 μM) for 24 hours or (v) BMP4 (3 ng/mL)+FGF2 (20 ng/mL) (“B3F20”) for 24 hours in the presence of a TGFβ agonist (Activin, 3-25 ng/mL) or a TGFβR inhibitor (A-83-01, 1 μM) and qPCR for all experiments was conducted on day 2 (that is, after 48 total hours of hESC differentiation). […] Therefore, hESCs were differentiated towards primitive streak for 24 hours, and then subsequently transferred into (i) A-83-01+CHIR99021+FGF2 (ACF) in the presence or absence of one of two BMPR inhibitors (DMH1, 1 μM or LDN193189, 250 nM) for 24 hours and qPCR was conducted on day 2. Alternately, hESC-derived PS was transferred into (ii) CHIR99021+DM3189+FGF2 (CDF) for 24 hours in the presence or absence of a TGFβ agonist (25 ng/mL Activin) or one of two TGFβR inhibitors (SB-505124, 2 μM or A-83-01, 1 μM) for 24 hours and qPCR was conducted on day 2. […] E) To test the role of FGF in lateral mesoderm induction (on day 2 of hESC differentiation), NKX2.5-GFP hESCs were differentiated into mid primitive streak for 24 hours, and then were treated with BMP4+C59+SB505124 in the presence of an FGF agonist (FGF2, 20-50 ng/mL) or a FGFR inhibitor (PD173074, 100 nM) or a MAPK/ERK inhibitor (PD0325901, 500 nM) for 24 hours, and then all cultures were treated with BMP4+C59+SB505124+FGF2 for 24 hours more before being harvested on day 3 for FACS.

hESCs = assay: Primitive streak (PS) induction from hESCs, qPCR
Protocol: As aforementioned, after overnight plating, hPSCs were briefly washed (with DMEM/F12) and then differentiated into either anterior primitive streak (30 ng/mL Activin A+4 μM CHIR99021+20 ng/mL FGF2+100 nM PIK90; for subsequent paraxial mesoderm induction) or mid primitive streak ([…] Activin A+40 ng/mL BMP4+6 μM CHIR99021+20 ng/mL FGF2+100 nM PIK90; for subsequent cardiac mesoderm induction) for 24 hrs.
Total cDNA was diluted 1:10-1:30 in H2O and qPCR was performed with the SensiFAST SYBR Lo-ROX Kit (Bioline) with 10 μL qPCR reactions per well in a 384-well plate: 5.0 μL 2× qPCR Master Mix+4.6 μL cDNA (totaling ˜120 ng of cDNA)+0.4 μL of 10 μM primer stock (5 μM forward+5 μM reverse primers). In general, gene-specific primer pairs were tested for (1) specificity of amplicon amplification (only one peak on a dissociation curve) and (2) linearity of amplicon amplification (linear detection of gene expression in cDNA samples serially diluted seven times over two orders of magnitude, with 90-110% efficiency of amplification deemed acceptably linear). After qPCR plates were prepared by arraying sample-specific cDNAs and gene-specific primers, they were sealed and briefly centrifuged (5 mins). 384-well qPCR plates and their adhesive sealing sheets were obtained from Thermo (AB1384 and AB0558, respectively). qPCR plates were run on a 7900HT Fast Real-Time PCR System (Applied Biosystems) with the following cycling parameters: initial dissociation (95° C., 2 mins) followed by 40 cycles of amplification and SYBR signal detection (95° C. dissociation, 5 seconds; 60° C. annealing, 10 seconds; followed by 72° C. extension, 30 seconds), with a final series of steps to generate a dissociation curve at the end of each qPCR run. During qPCR data analysis, the fluorescence threshold to determine Ct values was set at the linear phase of amplification; other qPCR data analysis methods including qPCR heatmap generation using the GenePattern platform (Broad Institute) were described previously by Loh et al., 2014, the disclosure of which is incorporated herein by reference in its entirety.
E) To assess whether inducing PS in the presence of TGFβ signaling altered its downstream potential to form different kinds of mesoderm, (i) H7 hESCs were differentiated into PS with CHIR99021+FGF2+PIK90 (CFK) for 24 hours in the presence or absence of increasing amounts of Activin (10-100 ng/mL), and then were transferred into paraxial mesoderm induction conditions (A-83-01+CHIR99021+DM3189+FGF2) for 24 hrs, and qPCR was conducted or (ii) H7 hESCs were differentiated into PS with BMP4 (10 ng/mL)+CHIR99021+FGF2+PIK90 (B10CFK) for 24 hours in the presence or absence of increasing amounts of Activin (10-100 ng/mL), and then were transferred into lateral/cardiac mesoderm inductions (A-83-01+BMP4+C59) for 24 hours and qPCR was conducted. […] F) To assess whether inducing PS in the presence of BMP signaling altered its downstream potential to form different kinds of mesoderm, H7 hESCs were differentiated into PS with Activin (10 ng/mL)+CHIR99021+FGF2+PIK90 (A10CFK) for 24 hours in the presence of absence of increasing amounts of BMP4 (1-40 ng/mL), and then were (i) transferred into paraxial mesoderm induction conditions (A-83-01+CHIR99021+DM3189+FGF2) for 24 hrs, and qPCR was conducted or were (ii) transferred into lateral/cardiac mesoderm inductions (A-83-01+BMP4+C59) for 24 hours and qPCR was conducted. […] G) H7 hESCs were differentiated into anterior primitive streak (30 ng/mL Activin+4 μM CHIR99021+20 ng/mL FGF2+100 nM PIK90) in the presence or absence of BMP4 (10 ng/mL) for 24 hours, and then transferred into paraxial mesoderm induction conditions for 24 hours before TBX6 immunostaining was conducted. […]

day 2 paraxial mesoderm = assay: Early somite progenitor formation from paraxial mesoderm, qPCR; conditions: 24 hours
Protocol: Day 2 paraxial mesoderm was briefly washed (DMEM/F12) and further differentiated into day 3 early somite/somitomere precursors for 24 hours (1 μM A-83-01+250 nM LDN-193189+1 μM C59+500 nM PD0325901). Subsequently, day 3 early somites were dorsoventrally patterned into either ventral somites/sclerotome (5 nM 21K+1 μM C59) or dorsal somites/dermomyotome (3 μM CHIR99021+150 nM Vismodegib). Sclerotome induction was conducted for 48-72 hours (leading to day 5-6 ventral somite progenitors). For dermomyotome induction, sometimes dermomyotome was induced in the presence of 50 ng/mL BMP4 to upregulate PAX7 after 48 hours of BMP4+CHIR99021+Vismodegib differentiation (leading to day 5 dermomyotome progenitors). Media was changed 24 hours for all steps.

CC1(C)CC=C(C#Cc2ccccc2)c2cc(/C=C/c3ccc(C(=O)O)cc3)ccc21 [BMS493]
competence of lateral mesoderm for forelimb fate (lateral mesoderm): incompetent to subsequently assume a forelimb fate

Cl.c1ccc2c(-c3cnn4cc(-c5ccc(N6CCNCC6)cc5)cnc34)ccnc2c1 [LDN193189, 4-[6-[4-(1-Piperazinyl)phenyl]pyrazolo[1,5-a]pyrimidin-3-yl]-quinoline hydrochloride]
paraxial mesoderm induction (qPCR day 2) [1]: serve to induce paraxial mesoderm
PS formation and anterior-posterior patterning (hESCs; ACFK with LDN193189 250 nM or BMP4 3-100 ng/mL): fully abolished PS formation
early somite marker expression (qPCR day 3) (day 2 paraxial mesoderm; CPR with DM3189 250 nM): permissive for expression of early somite markers

CC1=C(/C=C/C(C)=C/C=C/C(C)=C/C(=O)O)C(C)(C)CCC1 [all-trans retinoic acid]
forelimb transcription factor TBX5 expression on D3 (lateral mesoderm; RA signaling activated for 24 hours during lateral mesoderm induction (D1-2)): paramount for lateral mesoderm to subsequently express key forelimb transcription factor TBX5
early somite marker expression (qPCR day 3) (day 2 paraxial mesoderm; ACDP with RA 0.5-2 μM): dispensable for the expression of early somite markers
early somite marker expression (qPCR day 3) (day 2 paraxial mesoderm; ACDP with RA 0.5-2 μM, listed as RA): dispensable for early somite formation

CC(C)Oc1ccc(-c2cnc3c(-c4ccnc5ccccc45)cnn3c2)cc1 [DMH1, 4-[6-[4-(1-Methylethoxy)phenyl]pyrazolo[1,5-a]pyrimidin-3-yl]-quinoline]
paraxial mesoderm induction (qPCR day 2) [1]: serve to induce paraxial mesoderm

Cc1cccc(-c2nn(C(=S)Nc3ccccc3)cc2-c2ccnc3ccccc23)n1 [A-83-01, 3-(6-Methyl-2-pyridinyl)-N-phenyl-4-(4-quinolinyl)-1H-pyrazole-1-carbothioamide]
paraxial mesoderm induction (qPCR day 2) [1]: serve to induce paraxial mesoderm
NKX2.5-GFP+ cardiac mesoderm induction (FACS day 3) ([1]; BMP4 (50 ng/mL)+C59, 48 hours, SB-505124 2 μM or A-83-01 1 μM, P<0.01): increased NKX2.5-GFP^+ cardiac mesoderm induction
PS differentiation (hESCs; CHIR99021+20 ng/mL FGF2+100 nM PIK90 with 2 μM SB-505124 or 1 μM A-83-01): strongly impairs PS differentiation
early somite marker expression (qPCR day 3) (day 2 paraxial mesoderm; CDPR with A-83-01 1 μM): permissive for expression of early somite markers

Cc1ccc(C2=CCC(C)(C)c3ccc(C#Cc4ccc(C(=O)O)cc4)cc32)cc1 [AGN193109]
competence of lateral mesoderm for forelimb fate (lateral mesoderm): incompetent to subsequently assume a forelimb fate

B1: WNT3A: Wnt agonist, WNT family ligand (protein, UniProt P56704 19-352, looked up)
Protein Wnt-3a: SYPIWWSLAVGPQYSSLGSQPILCASIPGLVPKQLRFCRNYVEIMPSVAEGIKIGIQECQHQFRGRRWNCTTVHDSLAIFGPVLDKATRESAFVHAIASAGVAFAVTRSCAEGTAAICGCSSRHQGSPGKGWKWGGCSEDIEFGGMVSREFADARENRPDARSAMNRHNNEAGRQAIASHMHLKCKCHGLSGSCEVKTCWWSQPDFRAIGDFLKDKYDSASEMVVEKHRESRGWVETLRPRYTYFKVPTERDLVYYEASPNFCEPNPETGSFGTRDRTCNVSSHGIDGCDLLCCGRGHNARAERRREKCRCVFHWCCYVSCQECTRVYDVHTCK
PS marker expression (qPCR) (hESCs; 24 hours in A3B3F20, 300 ng/mL WNT3A or 0.5-8 μM CHIR99021): broadly induces both anterior (TBX6) and mid/posterior (FOXF1, MESP1) PS markers
